# System: MV-4-11 cells
# Test: Gene expression microarray analysis (Affymetrix PrimeView) and GSEA
# Assay type: cell-based, human
# Parameters: RFU PODN (11730768_x_at) / Fold change /veh PODN (11730768_x_at) / RFU LINC00158 (11744669_a_at) / Fold change /veh LINC00158 (11744669_a_at) / RFU DUSP10 (11751237_a_at) / Fold change /veh DUSP10 (11751237_a_at) / RFU ID3 (11757404_x_at) / Fold change /veh ID3 (11757404_x_at) / RFU PLEKHG5 (11737974_s_at) / Fold change /veh PLEKHG5 (11737974_s_at) / RFU LRRC4B (11730491_at) / Fold change /veh LRRC4B (11730491_at) / RFU GIMAP4 (11747438_a_at) / Fold change /veh GIMAP4 (11747438_a_at) / RFU KRT8 (11758183_x_at) / Fold change /veh KRT8 (11758183_x_at) / RFU CNN1 (11734310_a_at) / Fold change /veh CNN1 (11734310_a_at) / RFU VPS37D (11726825_at) / Fold change /veh VPS37D (11726825_at) / RFU C10orf10 (11716522_x_at) / Fold change /veh C10orf10 (11716522_x_at) / RFU KIR2DL2 /// KIR2DL4 /// KIR2DL5A /// KIR2DL5B /// KIR2DS1 /// KIR2DS2 /// KIR2DS3 /// KIR2DS4 /// KIR3DL3 /// KIR3DL3 /// KIR3DS1 (11738374_at) / Fold change /veh KIR2DL2 /// KIR2DL4 /// KIR2DL5A /// KIR2DL5B /// KIR2DS1 /// KIR2DS2 /// KIR2DS3 /// KIR2DS4 /// KIR3DL3 /// KIR3DL3 /// KIR3DS1 (11738374_at) / RFU C1QL1 (11718748_at) / Fold change /veh C1QL1 (11718748_at) / RFU TMPRSS4 (11747572_a_at) / Fold change /veh TMPRSS4 (11747572_a_at) / RFU HAMP (11756126_x_at) / Fold change /veh HAMP (11756126_x_at) / RFU RNFT2 (11725882_a_at) / Fold change /veh RNFT2 (11725882_a_at) / RFU NR4A2 (11747474_a_at) / Fold change /veh NR4A2 (11747474_a_at) / RFU ABCC12 (11746883_a_at) / Fold change /veh ABCC12 (11746883_a_at) / RFU TMEM136 (11760407_x_at) / Fold change /veh TMEM136 (11760407_x_at) / RFU CLDN22 /// WWC2 (11732394_at) / Fold change /veh CLDN22 /// WWC2 (11732394_at) / RFU HLA-DPB1 (11760878_x_at) / Fold change /veh HLA-DPB1 (11760878_x_at) / RFU SPINT1 (11716480_a_at) / Fold change /veh SPINT1 (11716480_a_at) / RFU GAP43 (11754022_s_at) / Fold change /veh GAP43 (11754022_s_at) / RFU A4GNT (11735810_at) / Fold change /veh A4GNT (11735810_at) / RFU PRB3 (11715151_x_at) / Fold change /veh PRB3 (11715151_x_at) / RFU TUBB4B (11761932_at) / Fold change /veh TUBB4B (11761932_at) / RFU CAPN14 (11732068_a_at) / Fold change /veh CAPN14 (11732068_a_at) / RFU TMCC2 (11721928_a_at) / Fold change /veh TMCC2 (11721928_a_at) / RFU IRGQ (11745062_a_at) / Fold change /veh IRGQ (11745062_a_at) / RFU FAM174B (11720279_a_at) / Fold change /veh FAM174B (11720279_a_at) / RFU TMPRSS4 (11748680_a_at) / Fold change /veh TMPRSS4 (11748680_a_at) / RFU FAM212B (11763350_a_at) / Fold change /veh FAM212B (11763350_a_at) / RFU PLEKHG5 (11743358_a_at) / Fold change /veh PLEKHG5 (11743358_a_at) / RFU ZSCAN30 (11745921_a_at) / Fold change /veh ZSCAN30 (11745921_a_at) / RFU CMKLR1 (11741424_a_at) / Fold change /veh CMKLR1 (11741424_a_at) / RFU LOC101060620 /// MAPK8IP1 (11723275_at) / Fold change /veh LOC101060620 /// MAPK8IP1 (11723275_at) / RFU SPTSSB (11747773_x_at) / Fold change /veh SPTSSB (11747773_x_at) / RFU PRSS12 (11739890_at) / Fold change /veh PRSS12 (11739890_at) / RFU BIN1 (11741810_x_at) / Fold change /veh BIN1 (11741810_x_at) / RFU WNT11 (11732464_a_at) / Fold change /veh WNT11 (11732464_a_at) / RFU C10orf10 (11716521_a_at) / Fold change /veh C10orf10 (11716521_a_at) / RFU C5orf56 (11738089_at) / Fold change /veh C5orf56 (11738089_at) / RFU CYB561 (11721691_x_at) / Fold change /veh CYB561 (11721691_x_at) / RFU ANKRD19P (11752326_a_at) / Fold change /veh ANKRD19P (11752326_a_at) / RFU OR2T12 /// OR2T33 /// OR2T8 (11738714_s_at) / Fold change /veh OR2T12 /// OR2T33 /// OR2T8 (11738714_s_at) / RFU VCAN (11748164_a_at) / Fold change /veh VCAN (11748164_a_at) / RFU JSRP1 (11732532_at) / Fold change /veh JSRP1 (11732532_at) / RFU KRTAP10-11 (11738290_x_at) / Fold change /veh KRTAP10-11 (11738290_x_at) / RFU MYO3A (11730013_a_at) / Fold change /veh MYO3A (11730013_a_at) / RFU EBF3 (11725865_a_at) / Fold change /veh EBF3 (11725865_a_at) / RFU CAMK2N1 (11719241_x_at) / Fold change /veh CAMK2N1 (11719241_x_at) / RFU C5orf56 (11738088_a_at) / Fold change /veh C5orf56 (11738088_a_at) / RFU OLFML3 (11715873_a_at) / Fold change /veh OLFML3 (11715873_a_at) / RFU LOC100653217 /// NTM (11731650_a_at) / Fold change /veh LOC100653217 /// NTM (11731650_a_at) / RFU MAPK11 (11762145_a_at) / Fold change /veh MAPK11 (11762145_a_at) / RFU FIZ1 (11724087_x_at) / Fold change /veh FIZ1 (11724087_x_at) / RFU OASL (11726364_x_at) / Fold change /veh OASL (11726364_x_at) / RFU SOX15 (11748057_x_at) / Fold change /veh SOX15 (11748057_x_at) / RFU CD79A (11719716_a_at) / Fold change /veh CD79A (11719716_a_at) / RFU HIST1H1D (11736915_at) / Fold change /veh HIST1H1D (11736915_at) / RFU CASKIN2 (11723855_a_at) / Fold change /veh CASKIN2 (11723855_a_at) / RFU LOC730098 (11760151_x_at) / Fold change /veh LOC730098 (11760151_x_at) / RFU OR4N2 (11742367_at) / Fold change /veh OR4N2 (11742367_at) / RFU PRRT2 (11749266_a_at) / Fold change /veh PRRT2 (11749266_a_at) / RFU SNX32 (11753110_a_at) / Fold change /veh SNX32 (11753110_a_at) / RFU CDHR5 (11726645_a_at) / Fold change /veh CDHR5 (11726645_a_at) / RFU RCAN1 (11760418_a_at) / Fold change /veh RCAN1 (11760418_a_at) / RFU FAM167A (11723789_a_at) / Fold change /veh FAM167A (11723789_a_at) / RFU FAM26E (11764081_at) / Fold change /veh FAM26E (11764081_at) / RFU ISYNA1 (11749810_s_at) / Fold change /veh ISYNA1 (11749810_s_at) / RFU ACY1 (11761880_at) / Fold change /veh ACY1 (11761880_at) / RFU 11764098_at / Fold change /veh 11764098_at / RFU SAMD14 (11745864_x_at) / Fold change /veh SAMD14 (11745864_x_at) / RFU NPB (11741838_a_at) / Fold change /veh NPB (11741838_a_at) / RFU TMPRSS6 (11731388_a_at) / Fold change /veh TMPRSS6 (11731388_a_at) / RFU KRTAP10-2 (11738614_at) / Fold change /veh KRTAP10-2 (11738614_at) / RFU ARHGAP8 /// PRR5-ARHGAP8 (11727945_x_at) / Fold change /veh ARHGAP8 /// PRR5-ARHGAP8 (11727945_x_at) / RFU KRTAP5-7 /// NADSYN1 (11734609_at) / Fold change /veh KRTAP5-7 /// NADSYN1 (11734609_at) / RFU RASL12 (11751679_a_at) / Fold change /veh RASL12 (11751679_a_at) / RFU CDKN2B (11736163_a_at) / Fold change /veh CDKN2B (11736163_a_at) / RFU PRF1 (11729649_at) / Fold change /veh PRF1 (11729649_at) / RFU, ZNF638 /// ZNF638-IT1 / Fold change vs veh, ZNF638 /// ZNF638-IT1 / RFU, PANK3 / Fold change vs veh, PANK3 / RFU, SH3YL1 / Fold change vs veh, SH3YL1 / RFU, ZEB2 / Fold change vs veh, ZEB2 / RFU, NRIP1 / Fold change vs veh, NRIP1 / RFU, PTTG1IP / Fold change vs veh, PTTG1IP / RFU, CAPN2 / Fold change vs veh, CAPN2 / RFU, MED14 / Fold change vs veh, MED14 / RFU, SNORA58 / Fold change vs veh, SNORA58 / RFU, C1orf63 / Fold change vs veh, C1orf63 / RFU, LRRFIP1 / Fold change vs veh, LRRFIP1 / RFU, NDUFAF7 / Fold change vs veh, NDUFAF7 / RFU, SLC12A2 / Fold change vs veh, SLC12A2 / RFU, IBTK / Fold change vs veh, IBTK / RFU, ESF1 / Fold change vs veh, ESF1 / Fold change vs veh, TMEM50B / RFU, TAOK1 / Fold change vs veh, TAOK1 / RFU, ACBD3 / Fold change vs veh, ACBD3 / RFU, TMA16 / Fold change vs veh, TMA16 / RFU, RWDD3 / Fold change vs veh, RWDD3 / RFU, BCAT1 / Fold change vs veh, BCAT1 / RFU, EDEM3 / Fold change vs veh, EDEM3 / RFU, TMEM33 / Fold change vs veh, TMEM33 / RFU, WDR75 / Fold change vs veh, WDR75 / RFU, AHCTF1 / Fold change vs veh, AHCTF1 / RFU, TFRC / Fold change vs veh, TFRC / RFU, ZDHHC17 / Fold change vs veh, ZDHHC17 / RFU, NOM1 / Fold change vs veh, NOM1 / RFU, ARL8B / Fold change vs veh, ARL8B / RFU, ZBTB11 / Fold change vs veh, ZBTB11 / RFU, TAMM41 / Fold change vs veh, TAMM41 / RFU, KIAA1704 /// LOC100996395 / Fold change vs veh, KIAA1704 /// LOC100996395 / RFU, ING1 / Fold change vs veh, ING1 / RFU, TRMT61B / Fold change vs veh, TRMT61B / RFU, FUBP3 / Fold change vs veh, FUBP3 / RFU, TP53 / Fold change vs veh, TP53 / RFU, TNKS2 / Fold change vs veh, TNKS2 / RFU, ZFP14 / Fold change vs veh, ZFP14 / RFU, ACTR2 / Fold change vs veh, ACTR2 / RFU, PPP3R1 / Fold change vs veh, PPP3R1 / RFU, PIK3R1 / Fold change vs veh, PIK3R1 / RFU, HNRNPA1 / Fold change vs veh, HNRNPA1 / RFU, RNF170 / Fold change vs veh, RNF170 / RFU, ZNF28 / Fold change vs veh, ZNF28 / RFU, RNGTT / Fold change vs veh, RNGTT / RFU, OGT / Fold change vs veh, OGT / RFU, BRD1 / Fold change vs veh, BRD1 / RFU, MARS / Fold change vs veh, MARS / RFU, ZNF655 / Fold change vs veh, ZNF655 / RFU, FAHD1 / Fold change vs veh, FAHD1 / RFU, BDP1 / Fold change vs veh, BDP1 / RFU, LRRCC1 / Fold change vs veh, LRRCC1 / RFU, ARID1A / Fold change vs veh, ARID1A / RFU, ZNF146 / Fold change vs veh, ZNF146 / RFU, ZNF330 / Fold change vs veh, ZNF330 / RFU, GPN3 / Fold change vs veh, GPN3 / RFU, C9orf123 / Fold change vs veh, C9orf123 / RFU, N4BP2L2 / Fold change vs veh, N4BP2L2 / RFU, ARFIP1 / Fold change vs veh, ARFIP1 / RFU, FAM179B / Fold change vs veh, FAM179B / RFU, BCL10 / Fold change vs veh, BCL10 / RFU, UHRF1BP1L / Fold change vs veh, UHRF1BP1L / RFU, BET1 / Fold change vs veh, BET1 / RFU, CNOT2 / Fold change vs veh, CNOT2 / RFU, ZNF268 / Fold change vs veh, ZNF268 / Fold change vs veh, ZNF507 / RFU, DGCR2 / Fold change vs veh, DGCR2 / RFU, WDSUB1 / Fold change vs veh, WDSUB1 / Fold change vs veh, HSP90B1 /// MIR3652 / RFU, ADSS / Fold change vs veh, ADSS / RFU, GK / Fold change vs veh, GK / RFU, ZNF148 / Fold change vs veh, ZNF148 / RFU, TAF9 / Fold change vs veh, TAF9 / RFU, SLC1A5 / Fold change vs veh, SLC1A5 / RFU, SLMO2 / Fold change vs veh, SLMO2 / RFU, ABCC4 / Fold change vs veh, ABCC4 / RFU, LOC101060439 /// RAP1B / Fold change vs veh, LOC101060439 /// RAP1B / RFU, RFX7 / Fold change vs veh, RFX7 / RFU, GTPBP10 / Fold change vs veh, GTPBP10 / RFU, CNEP1R1 / Fold change vs veh, CNEP1R1 / RFU, BIVM-ERCC5 /// ERCC5 / Fold change vs veh, BIVM-ERCC5 /// ERCC5 / RFU, ILF3 / Fold change vs veh, ILF3 / RFU 11762660_at / Fold change /veh 11762660_at / RFU VCAN (11757783_s_at) / Fold change /veh VCAN (11757783_s_at) / RFU DDX43 (11728927_at) / Fold change /veh DDX43 (11728927_at) / RFU KRT8 (11758188_x_at) / Fold change /veh KRT8 (11758188_x_at) / RFU NKD1 (11759106_at) / Fold change /veh NKD1 (11759106_at) / RFU SRD5A1 (11742802_a_at) / Fold change /veh SRD5A1 (11742802_a_at) / RFU TPSAB1 /// TPSB2 (11721975_s_at) / Fold change /veh TPSAB1 /// TPSB2 (11721975_s_at) / RFU GSTM3 (11746129_a_at) / Fold change /veh GSTM3 (11746129_a_at) / RFU IL23R (11737362_x_at) / Fold change /veh IL23R (11737362_x_at) / RFU TMEM51 (11727254_a_at) / Fold change /veh TMEM51 (11727254_a_at) / RFU PIWIL2 (11732686_x_at) / Fold change /veh PIWIL2 (11732686_x_at) / RFU ORM1 (11744905_x_at) / Fold change /veh ORM1 (11744905_x_at) / RFU CCDC152 (11743942_at) / Fold change /veh CCDC152 (11743942_at) / RFU ECM1 (11717891_a_at) / Fold change /veh ECM1 (11717891_a_at) / RFU IL23R (11748794_a_at) / Fold change /veh IL23R (11748794_a_at) / RFU TNFAIP8L3 (11732012_x_at) / Fold change /veh TNFAIP8L3 (11732012_x_at) / RFU MBOAT4 (11741988_at) / Fold change /veh MBOAT4 (11741988_at) / RFU 11764193_at / Fold change /veh 11764193_at / RFU TMEM53 (11763286_at) / Fold change /veh TMEM53 (11763286_at) / RFU MAGEB2 (11727129_at) / Fold change /veh MAGEB2 (11727129_at) / RFU TMEM200A (11744735_a_at) / Fold change /veh TMEM200A (11744735_a_at) / RFU CCDC152 (11751479_a_at) / Fold change /veh CCDC152 (11751479_a_at) / RFU FAM211A (11726209_a_at) / Fold change /veh FAM211A (11726209_a_at) / RFU RGS16 (11746705_a_at) / Fold change /veh RGS16 (11746705_a_at) / RFU VCAN (11755009_s_at) / Fold change /veh VCAN (11755009_s_at) / RFU RHOB (11743442_s_at) / Fold change /veh RHOB (11743442_s_at) / RFU RGS16 (11720943_a_at) / Fold change /veh RGS16 (11720943_a_at) / RFU RGS16 (11720944_at) / Fold change /veh RGS16 (11720944_at) / RFU, VPS4B / Fold change vs veh, VPS4B / RFU, CREB1 / Fold change vs veh, CREB1 / RFU, DNAJC13 / Fold change vs veh, DNAJC13 / RFU, GNAQ / Fold change vs veh, GNAQ / RFU, CDK5R1 / Fold change vs veh, CDK5R1 / RFU, ZRANB3 / Fold change vs veh, ZRANB3 / RFU, CUL4A / Fold change vs veh, CUL4A / RFU, CCNY / Fold change vs veh, CCNY / RFU, UFL1 / Fold change vs veh, UFL1 / RFU, COG3 / Fold change vs veh, COG3 / RFU, DIAPH2 / Fold change vs veh, DIAPH2 / RFU, SKA2 / Fold change vs veh, SKA2 / RFU, AFF3 / Fold change vs veh, AFF3 / RFU, LMF1 / Fold change vs veh, LMF1 / RFU, IPO11 / Fold change vs veh, IPO11 / RFU, DFFB / Fold change vs veh, DFFB / RFU, FOXP1 / Fold change vs veh, FOXP1 / RFU, CARD8 / Fold change vs veh, CARD8 / RFU, STRN3 / Fold change vs veh, STRN3 / RFU, ADK / Fold change vs veh, ADK / RFU, RASSF2 / Fold change vs veh, RASSF2 / RFU, WIPF1 / Fold change vs veh, WIPF1 / RFU, LARP1B / Fold change vs veh, LARP1B / RFU, RASA1 / Fold change vs veh, RASA1 / RFU, RB1 / Fold change vs veh, RB1 / RFU, PPFIA1 / Fold change vs veh, PPFIA1 / RFU, MAT2A / Fold change vs veh, MAT2A / RFU, CCT5 / Fold change vs veh, CCT5 / RFU, WDR92 / Fold change vs veh, WDR92 / RFU, CUX1 / Fold change vs veh, CUX1 / RFU, TTC7A / Fold change vs veh, TTC7A / RFU, TMEM135 / Fold change vs veh, TMEM135 / RFU, DEPTOR / Fold change vs veh, DEPTOR / RFU, CPM / Fold change vs veh, CPM / RFU, DNAJB6 / Fold change vs veh, DNAJB6 / RFU, CACNA2D3 / Fold change vs veh, CACNA2D3 / RFU, DTX4 / Fold change vs veh, DTX4 / RFU, TFCP2 / Fold change vs veh, TFCP2 / RFU, GMCL1 /// GMCL1P1 / Fold change vs veh, GMCL1 /// GMCL1P1 / RFU, AEBP2 / Fold change vs veh, AEBP2 / RFU, SNHG1 /// SNORD22 /// SNORD25 /// SNORD26 /// SNORD27 /// SNORD28 /// SNORD29 /// SNORD31 / Fold change vs veh, SNHG1 /// SNORD22 /// SNORD25 /// SNORD26 /// SNORD27 /// SNORD28 /// SNORD29 /// SNORD31 / Fold change (Aza/veh), C12orf56 (ProbeSet 11735607_a_at) / Fold change (ACY-1035/veh), C12orf56 (ProbeSet 11735607_a_at) / Fold change (Aza/veh), FGFR1OP (ProbeSet 11751329_s_at) / Fold change (ACY-1035/veh), FGFR1OP (ProbeSet 11751329_s_at) / Fold change (Aza/veh), VPS36 (ProbeSet 11739960_a_at) / Fold change (ACY-1035/veh), VPS36 (ProbeSet 11739960_a_at) / RFU SYPL1 (11715823_x_at) / Fold change /veh SYPL1 (11715823_x_at) / RFU IGFBP7 (11715501_s_at) / Fold change /veh IGFBP7 (11715501_s_at) / RFU REEP3 (11722064_at) / Fold change /veh REEP3 (11722064_at) / RFU IGLL1 (11728026_x_at) / Fold change /veh IGLL1 (11728026_x_at): dose or concentration left out as unconfirmed
# Details: MV-4-11 cells, 48 hours
structure (smiles),measurement,value
Nc1ncn([C@@H]2O[C@H](CO)[C@@H](O)[C@H]2O)c(=O)n1 [azacitidine],Fold change /veh CDKN2B (11736163_a_at),1.08
